Data from patent US20250170136A1, “1,2,4-TRIAZIN-3(2H)-ONE COMPOUNDS FOR THE TREATMENT OF HYPERPROLIFERATIVE DISEASES” (BAYER AKTIENGESELLSCHAFT, priority 2019, published 2025).

Key:
[1] = In vivo pharmacokinetics in mice (i.v.); set-up: species or system female CD-1 mice; details: Mouse/female/CD1, 0.5 mg/kg i.v., PEG400 60% + Water 35% + EtOH 5%
Protocol: (§1) For in vivo pharmacokinetic experiments test compounds were administered to female CD-1 mice, male Wistar rats, Beagle dogs or Cynomolgus monkeys intravenously at doses of 0.3 to 1 mg/kg formulated as solutions using solubilizers such as PEG400 in well-tolerated amounts.
(§2) Studies may also have been performed as cassette administrations of up to 3 compounds given together simultaneously in low doses.
(§3) For pharmacokinetics after intravenous administration test compounds were given in the female mice and male rat as i.v. bolus and in dogs and monkeys as short term infusion (15 min). Blood samples were taken e.g. at 2 min, 8 min, 15 min, 30 min, 45 min, 1 h, 2 h, 4 h, 6 h, 8 h and 24 h after dosing from the vena jugularis (mouse, rat) or vena saphena (dog, monkey). […] PK parameters were calculated by non-compartmental analysis using a PK calculation software (e.g. Phoenix WinNonlin®, Certara USA, Inc.).
(§4) PK parameters derived from concentration-time profiles after i.v.: CLplasma (in L/kg/h): Total plasma clearance of test compound calculated by dose (in μg/kg) divided by area under the concentration-time curve from t=0 h to infinity (extrapolated) (AUCinf in μg*h/L); CLblood: Total blood clearance of test compound: CLplasma*Cp/Cb (in L/kg/h) with Cp/Cb being the ratio of test compound concentrations in plasma and blood. […]

[2] = tested on: SW1783 cells; test: Cell proliferation measurement (CellTiter-Glo, 72 h); type: cell-based; details: Homo sapiens, anti-proliferation, SW1783, Brain (Anaplastic astrocytoma)
Protocol: (§5) The antiproliferative activity of the compounds of the general formula (I) was examined in vitro in human cancer cells. […] After 24 h, cells on one plate (0 h plate) were treated with 30 μl/cavity of CTG solution (Promega Cell Titer Glo (catalogue #G755B and G756B)) and incubated at room temperature for 10 min, and luminescence was measured by means of a VICTOR V (Perkin Elmer), in order to determine cell viability on commencement of treatment. The cells on the test plate were treated with the compounds of the general formula (I) as and incubated at 37° C. for 72 h. The compounds were added to the cells by means of an HP D300 digital dispenser in a 10-step 2,5-fold dilution series generally starting at a maximum final drug concentration of 100 nM, or 30 μM in the case of COV318. As control, the cells were treated with vehicle (DMSO at 0.3% final concentration). After 72 h, the cells were treated with 30 μl/cavity of CTG solution (Promega Cell Titer Glo (catalogue #G755B and G756B)) and incubated at room temperature for 10 min, and luminescence was measured by means of a VICTOR V (Perkin Elmer), in order to determine cell viability at the end of treatment. The percentage effect on cell growth and the IC50 derived therefrom were determined for each test substance using the values from the 0 h plate (=maximum inhibition) and the DMSO control (=minimum inhibition). The IC50 values were calculated using a 4-parameter fit.

[3] = tested on: T98G cells; test: as above; type: cell-based; details: Homo sapiens, anti-proliferation, Brain (Glioblastoma)
Protocol: as §5

[4] = tested on: HeLa cells; test: as above; type: cell-based; details: Homo sapiens, anti-proliferation
Protocol: as §5

[5] = tested on: SK-MEL-3 cells; test: as above; type: cell-based; details: Homo sapiens, SK-MEL3; anti-proliferation, SK-MEL-3, 72 h
Protocol: as §5

[6] = tested on: U118-MG cells; test: as above; type: cell-based; details: Homo sapiens, U-118-MG, anti-proliferation, Brain (Glioblastoma: Astrocytoma)
Protocol: as §5

[7] = tested on: Mel202 cells; test: as above; type: cell-based; details: Homo sapiens, anti-proliferation, Mel202, Uveal melanoma
Protocol: as §5

[8] = tested on: LN229 cells; test: as above; type: cell-based; details: Homo sapiens, LN-229, anti-proliferation, LN229, Brain (Glioblastoma)
Protocol: as §5

[9] = tested on: DBTRG05MG cells; test: as above; type: cell-based; details: Homo sapiens, DBTRG-05MG, anti-proliferation, Brain (Glioblastoma)
Protocol: as §5

[10] = In vivo pharmacokinetics in rats (i.v.); details: Rat/male/Wistar, 0.5 mg/kg i.v., Plasma 95% + EtOH 4% + DMSO 1%
Protocol: as §1, §2, §3, §4

[11] = target: human full length PDE3A (Homo sapiens (Human), UniProt Q14432); test: PDE3A enzyme inhibition (3H-cAMP Scintillation Proximity Assay); type: biochemical; details: Sf9 cell extract, 60 min room temperature
Protocol: The commercially available 3H-cAMP Scintillation Proximity Assay (SPA, Perkin Elmer) system was used for enzyme inhibition studies. For the determination of the in vitro effect of example compounds on the PDE3A reactions 2 μl of the respective example compound solution in DMSO (serial dilutions) were placed in wells of microtiter plates (Isoplate-96/200W; Perkin Elmer). 50 μl of a dilution of PDE3A cell extract from Sf9 cells overexpressing human full length PDE3A (SB Drug Discovery, UK) in buffer A (50 mM Tris/HCl pH 7.5, 8.3 mM MgCl2, 1.7 mM EDTA, 0.2% BSA) was added. The dilution of the PDE3A cell extract was chosen such that the reaction kinetics was linear and less than 70% of the substrate was consumed (typical dilution 1:5000). The reaction was started by addition of 50 μl (0.025 μCi) of 1:2000 in buffer A w/o BSA diluted substrate [8-3H]adenosine 3′, 5′-cyclic phosphate (1 μCi/μl; Perkin Elmer). After incubation at room temperature for 60 min, the reaction was stopped by addition of 25 μl of a suspension containing 18 mg/ml yttrium scintillation proximity beads (Perkin Elmer) in water. The microtiter plates were sealed and measured in a Microbeta scintillation counter (PerkinElmer Wallac). IC50 values were determined from sigmoidal curves by plotting percentage PDE3A activity vs log compound concentration.

human full length PDE3A, sequence (Q14432 whole entry): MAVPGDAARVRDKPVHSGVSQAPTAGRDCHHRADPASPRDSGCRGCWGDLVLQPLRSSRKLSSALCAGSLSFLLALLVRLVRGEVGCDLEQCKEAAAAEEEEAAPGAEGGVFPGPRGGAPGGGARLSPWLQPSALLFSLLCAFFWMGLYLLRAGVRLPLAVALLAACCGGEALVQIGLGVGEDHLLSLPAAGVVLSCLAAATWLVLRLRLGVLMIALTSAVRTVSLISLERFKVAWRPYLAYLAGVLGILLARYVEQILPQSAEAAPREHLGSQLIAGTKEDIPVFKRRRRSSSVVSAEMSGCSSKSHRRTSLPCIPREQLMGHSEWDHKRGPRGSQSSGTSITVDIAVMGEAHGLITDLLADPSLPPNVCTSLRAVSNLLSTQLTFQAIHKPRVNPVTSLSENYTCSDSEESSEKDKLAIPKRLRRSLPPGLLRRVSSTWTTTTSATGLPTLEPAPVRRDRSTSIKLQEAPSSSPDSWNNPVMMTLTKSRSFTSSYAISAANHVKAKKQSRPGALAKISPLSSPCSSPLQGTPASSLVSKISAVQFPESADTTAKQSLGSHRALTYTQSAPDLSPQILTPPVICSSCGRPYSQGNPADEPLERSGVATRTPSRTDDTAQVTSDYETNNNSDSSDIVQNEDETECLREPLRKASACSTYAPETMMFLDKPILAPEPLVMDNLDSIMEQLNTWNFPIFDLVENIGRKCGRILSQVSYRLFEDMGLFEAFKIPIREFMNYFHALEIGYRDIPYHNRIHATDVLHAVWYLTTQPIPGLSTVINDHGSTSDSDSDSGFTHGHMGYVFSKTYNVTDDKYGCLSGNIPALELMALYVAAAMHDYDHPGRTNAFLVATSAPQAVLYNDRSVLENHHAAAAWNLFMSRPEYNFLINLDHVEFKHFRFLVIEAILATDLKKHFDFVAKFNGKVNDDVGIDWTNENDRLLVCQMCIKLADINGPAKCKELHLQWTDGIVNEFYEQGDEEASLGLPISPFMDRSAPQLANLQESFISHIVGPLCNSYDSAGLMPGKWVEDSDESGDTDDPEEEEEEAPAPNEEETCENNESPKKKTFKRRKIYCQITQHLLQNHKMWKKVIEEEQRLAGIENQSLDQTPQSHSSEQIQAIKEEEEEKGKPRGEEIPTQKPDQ

C[C@@H]1NC(=O)NN=C1c1ccc(-n2ccc(C(F)(F)F)n2)c(C(F)(F)F)c1 [Example 1, (5S)-5-methyl-6-{3-(trifluoromethyl)-4-[3-(trifluoromethyl)-1H-pyrazol-1-yl]phenyl}-4,5-dihydro-1,2,4-triazin-3(2H)-one]
CLblood [1]: 3 mL/min/kg
IC50 [2]: > 0.1 µM
IC50 [3]: > 0.1 µM
IC50 [4]: 0.0015 µM
IC50 [5]: 0.004 µM
IC50 [6]: > 0.1 µM
IC50 [7]: 0.0742 µM
IC50 [8]: > 0.1 µM
IC50 [9]: 0.0305 µM
CLblood [10]: 3.67 mL/min/kg
IC50 [11]: 0.091 µM
